Each compound was assayed against HEK293 cells with stable expression of the GRIN1 gene and tetracycline-inducible expression of the GRIN2B gene (NMDA receptor, NR2B) (Homo sapiens, UniProt Q13224) (assay: Fluo-8 Ca2+ flux assay: reversal of Ro 25-6981-mediated suppression of the Ca2+ response to co-agonist (glutamate/glycine)). Settings: reversal of the Ro 25-6981 suppression of the Ca2+ response to co-agonist (glutamate/glycine).
Assay type: cell-based
Also: test concentration or dose not given here.

Chain of HEK293 cells with stable expression of the GRIN1 gene and tetracycline-inducible expression of the GRIN2B gene (NMDA receptor, NR2B) (Q13224 27-1484, other chains not shown): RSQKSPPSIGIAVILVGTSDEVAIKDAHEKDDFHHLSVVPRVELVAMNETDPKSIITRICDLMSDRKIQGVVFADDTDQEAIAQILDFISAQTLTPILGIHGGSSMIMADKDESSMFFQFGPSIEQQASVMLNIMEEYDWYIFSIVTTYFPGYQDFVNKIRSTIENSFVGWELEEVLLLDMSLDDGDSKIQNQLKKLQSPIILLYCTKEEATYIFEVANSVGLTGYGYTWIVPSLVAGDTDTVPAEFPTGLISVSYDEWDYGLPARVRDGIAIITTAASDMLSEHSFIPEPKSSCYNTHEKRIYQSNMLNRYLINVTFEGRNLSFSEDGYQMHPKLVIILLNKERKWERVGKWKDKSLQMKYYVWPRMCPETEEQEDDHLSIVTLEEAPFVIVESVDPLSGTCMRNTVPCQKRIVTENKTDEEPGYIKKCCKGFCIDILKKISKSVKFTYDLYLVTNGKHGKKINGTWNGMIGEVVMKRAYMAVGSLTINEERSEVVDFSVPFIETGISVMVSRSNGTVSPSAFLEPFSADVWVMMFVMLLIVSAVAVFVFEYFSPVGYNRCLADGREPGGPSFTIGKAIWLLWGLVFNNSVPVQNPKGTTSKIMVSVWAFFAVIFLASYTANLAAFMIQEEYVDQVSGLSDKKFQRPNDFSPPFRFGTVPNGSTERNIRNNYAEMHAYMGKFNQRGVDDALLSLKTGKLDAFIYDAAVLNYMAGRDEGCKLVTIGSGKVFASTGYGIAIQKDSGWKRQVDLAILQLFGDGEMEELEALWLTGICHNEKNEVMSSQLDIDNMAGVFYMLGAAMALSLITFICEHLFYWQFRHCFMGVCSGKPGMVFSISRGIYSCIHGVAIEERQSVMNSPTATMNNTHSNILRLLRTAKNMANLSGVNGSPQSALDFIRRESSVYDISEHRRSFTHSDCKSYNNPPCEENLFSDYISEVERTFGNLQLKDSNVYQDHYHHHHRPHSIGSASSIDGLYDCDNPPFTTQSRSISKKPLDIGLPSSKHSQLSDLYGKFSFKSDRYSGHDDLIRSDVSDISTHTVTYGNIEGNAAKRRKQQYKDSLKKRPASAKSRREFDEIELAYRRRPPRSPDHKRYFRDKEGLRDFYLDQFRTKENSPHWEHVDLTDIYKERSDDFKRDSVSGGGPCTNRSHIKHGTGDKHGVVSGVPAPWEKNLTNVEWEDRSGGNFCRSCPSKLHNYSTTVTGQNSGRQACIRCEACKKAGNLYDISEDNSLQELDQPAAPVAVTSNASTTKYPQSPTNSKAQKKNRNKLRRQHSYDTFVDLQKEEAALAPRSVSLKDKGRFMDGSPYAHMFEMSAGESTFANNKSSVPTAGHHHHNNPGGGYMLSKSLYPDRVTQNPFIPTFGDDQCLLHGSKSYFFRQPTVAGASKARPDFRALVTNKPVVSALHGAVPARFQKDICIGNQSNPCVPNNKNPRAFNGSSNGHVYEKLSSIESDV

Compound	Response Recovered (%)
CC1(F)CN(C(=O)Cn2cnn3cnc(-c4ccc(F)c(Cl)c4)c3c2=O)C1 [Example 424, 5-(3-chloro-4-fluorophenyl)-3-(2-(3-fluoro-3-methylazetidin-1-yl)-2-oxoethyl)imidazo[5,1-f][1,2,4]triazin-4(3H)-one]	0.55%
CC1(NC(=O)OC(C)(C)C)CN(C(=O)Cn2ccc3scc(-c4ccc(F)c(Cl)c4)c3c2=O)C1 [Example 74, tert-butyl (1-(2-(3-(3-chloro-4-fluorophenyl)-4-oxothieno[3,2-c]pyridin-5(4H)-yl)acetyl)-3-methylazetidin-3-yl)carbamate]	4.7%
O=C(Cn1ccc2c(c(-c3ccc(F)c(Cl)c3)cn2-c2ccccn2)c1=O)N1CCC(F)C1 (centres unmarked) [Example 228, 3-(4-chloro-4-fluorophenyl)-5-(2-(3-fluoropyrrolidin-1-yl)-2-oxoethyl)-1-(pyridin-2-yl)-1H-pyrrolo[3,2-c]pyridin-4(5H)-one]	39%
O=C(Cn1cnc2cccc(-c3ccc(Cl)cc3)c2c1=O)N1CC(F)(F)C1 [Example 296, 5-(4-chlorophenyl)-3-(2-(3,3-difluoroazetidin-1-yl)-2-oxoethyl)quinazolin-4(3H)-one]	9%
O=C(Cn1ccc2scc(-c3cnc(Cl)c(Cl)c3)c2c1=O)N1CC(F)(C2CC2)C1 [Example 70, 5-(2-(3-cyclopropyl-3-fluoroazetidin-1-yl)-2-oxoethyl)-3-(5,6-dichloropyridin-3-yl)thieno[3,2-c]pyridin-4(5H)-one]	64%
O=C(Cn1cnc2onc(-c3ccc(Cl)cc3)c2c1=O)N1CCC(F)C1 (centres unmarked) [Example 386, 3-(4-chlorophenyl)-5-(2-(3-fluoropyrrolidin-1-yl)-2-oxoethyl)isoxazolo[5,4-d]pyrimidin-4(5H)-one]	4%
O=C(Cn1cnc2c(c(-c3ccc(Cl)c(F)c3)cn2CCF)c1=O)N1CCCC1 [Example 173, 5-(4-chloro-3-fluorophenyl)-7-(2-fluoroethyl)-3-(2-oxo-2-(pyrrolidin-1-yl)ethyl)-3H-pyrrolo[2,3-d]pyrimidin-4(7H)-one]	32%
O=C(Cn1ccn2c(C3CC3)nc(-c3ccc(Cl)c(Cl)c3)c2c1=O)N1CCC(F)C1 (centres unmarked) [Example 433, 3-cyclopropyl-1-(3,4-dichlorophenyl)-7-(2-(3-fluoropyrrolidin-1-yl)-2-oxoethyl)imidazo[1,5-a]pyrazin-8(7H)-one]	68%
Cc1cn(CC(=O)N2CCC(F)C2)c(=O)n2c(-c3ccc(F)c(Cl)c3)cnc12 (centres unmarked) [Example 452, 3-(3-chloro-4-fluorophenyl)-6-(2-(3-fluoropyrrolidin-1-yl)-2-oxoethyl)-8 methylimidazo[1,2-c]pyrimidin-5(6H)-one]	7.5%
O=C(Cn1cnc2ccn(-c3ccc(Cl)cc3)c2c1=O)N1CCCC1C(F)(F)F (centres unmarked) [Example 379, 5-(4-chlorophenyl)-3-(2-oxo-2-(2-(trifluoromethyl)pyrrolidin-1-yl)ethyl)-3H-pyrrolo[3,2-d]pyrimidin-4(5H)-one]	5%
O=C(Cn1cc(CN2CC(F)C2)c2scc(-c3ccc(F)c(Cl)c3)c2c1=O)N1CCC(F)C1 (centres unmarked) [Example 125, 3-(3-chloro-4-fluorophenyl)-7-((3-fluoroazetidin-1-yl)methyl)-5-(2-(3-fluoropyrrolidin-1-yl)-2-oxoethyl)thieno[3,2-c]pyridin-4(5H)-one]	53%
COCCn1cc(-c2ccc(F)c(Cl)c2)c2c(=O)n(CC(=O)N3CCCC3)cnc21 [Example 186, 5-(3-chloro-4-fluorophenyl)-7-(2-methoxyethyl)-3-(2-oxo-2-(pyrrolidin-1-yl)ethyl)-3H-pyrrolo[2,3-d]pyrimidin-4(7H)-one]	18%
O=C(Cn1cnc2csc(-c3ccc(Cl)c(F)c3)c2c1=O)N1CCCC1 [Example 367, 5-(4-chloro-3-fluorophenyl)-3-(2-oxo-2-(pyrrolidin-1-yl)ethyl)thieno[3,4-d]pyrimidin-4(3H)-one]	15%
O=C(Cn1cnc2onc(-c3ccc(Cl)cc3)c2c1=O)N1CCCC1 [Example 383, 3-(4-chlorophenyl)-5-(2-oxo-2-(pyrrolidin-1-yl)ethyl)isoxazolo[5,4-d]pyrimidin-4(5H)-one]	1%
CCC1(F)CN(C(=O)Cn2ccc3scc(-c4cnc(C)c(Cl)c4)c3c2=O)C1 [Example 91, 3-(5-chloro-6-methylpyridin-3-yl)-5-(2-(3-ethyl-3-fluoroazetidin-1-yl)-2-oxoethyl)thieno[3,2-c]pyridin-4(5H)-one]	74%

Other lines, results leading:

Response Recovered (%)	Compound
−1%	O=C(Cn1ncc2scc(-c3ccc(Cl)c(C(F)(F)F)c3)c2c1=O)N1CCC(F)C1 (centres unmarked) [Example 344, 3-(4-chloro-3-(trifluoromethyl)phenyl)-5-(2-(3-fluoropyrrolidin-1-yl)-2-oxoethyl)thieno[2,3-d]pyridazin-4(5H)-one]
40%	Cn1cc(-n2cc(-c3ccc(F)c(Cl)c3)c3c(=O)n(CC(=O)N4CCC(F)C4)ccc32)cn1 (centres unmarked) [Example 235, 3-(3-chloro-4-fluorophenyl)-5-(2-(3-fluoropyrrolidin-1-yl)-2-oxoethyl)-1-(1-methyl-1H-pyrazol-4-yl)-1H-pyrrolo[3,2-c]pyridin-4(5H)-one]
140%	O=C(Cn1ccc2scc(-c3ccc(F)c(Cl)c3)c2c1=O)N1CC(F)(CF)C1 [Example 81, 3-(3-chloro-4-fluorophenyl)-5-(2-(3-fluoro-3-(fluoromethyl)azetidin-1-yl)-2-oxoethyl)thieno[3,2-c]pyridin-4(5H)-one]
90%	O=C(Cn1ccc2c(c(-c3ccc(F)c(C(F)(F)F)c3)cn2C2CC2)c1=O)N1CCC(F)C1 (centres unmarked) [Example 231, 1-cyclopropyl-3-(4-fluoro-3-(trifluoromethyl)phenyl)-5-(2-(3-fluoropyrrolidin-1-yl)-2-oxoethyl)-1H-pyrrolo[3,2-c]pyridin-4(5H)-one]
34%	O=C(Cn1cnc2c(c(-c3ccc(F)c(C(F)(F)F)c3)cn2CCO)c1=O)N1CCC(F)C1 (centres unmarked) [Example 196, 5-(4-fluoro-3-(trifluoromethyl)phenyl)-3-(2-(3-fluoropyrrolidin-1-yl)-2-oxoethyl)-7-(2-hydroxyethyl)-3H-pyrrolo[2,3-d]pyrimidin-4(7H)-one]
130%	O=C(Cn1ccn2ccc(-c3ccc(F)c(C(F)(F)F)c3)c2c1=O)N1CC(F)(CF)C1 [Example 407, 2-(2-(3-fluoro-3-(fluoromethyl)azetidin-1-yl)-2-oxoethyl)-8-(4-fluoro-3-(trifluoromethyl)phenyl)pyrrolo[1,2-a]pyrazin-1(2H)-one]
150%	CC1(F)CN(C(=O)Cn2ccc3c(c(-c4ccc(F)c(Cl)c4)cn3CCF)c2=O)C1 [Example 281, 3-(3-chloro-4-fluorophenyl)-5-(2-(3-fluoro-3-methylazetidin-1-yl)-2-oxoethyl)-1-(2-fluoroethyl)-1H-pyrrolo[3,2-c]pyridin-4(5H)-one]
2%	O=C(Cn1cnc2c(c(-c3ccc(Cl)c(C(F)(F)F)c3)cn2CCO)c1=O)N1CCCC1 [Example 194, 5-(4-chloro-3-(trifluoromethyl)phenyl)-7-(2-hydroxyethyl)-3-(2-oxo-2-(pyrrolidin-1-yl)ethyl)-3H-pyrrolo[2,3-d]pyrimidin-4(7H)-one]
83%	O=C(Cn1ccc2c(c(-c3ccc(F)c(C(F)(F)F)c3)cn2-c2ccccn2)c1=O)N1CCC(F)C1 (centres unmarked) [Example 225, 3-(4-fluoro-3-(trifluoromethyl)phenyl)-5-(2-(3-fluoropyrrolidin-1-yl)-2-oxoethyl)-1-(pyridin-2-yl)-1H-pyrrolo[3,2-c]pyridin-4(5H)-one]
120%	CC1(F)CN(C(=O)Cn2ccn3c(C4CC4)nc(-c4ccc(Cl)c(Cl)c4)c3c2=O)C1 [Example 435, 3-cyclopropyl-1-(3,4-dichlorophenyl)-7-(2-(3-fluoro-3-methylazetidin-1-yl)-2-oxoethyl)imidazo[1,5-a]pyrazin-8(7H)-one]
34%	CCC1(F)CN(C(=O)Cn2ccn3ccc(-c4cnc(Cl)c(C)c4)c3c2=O)C1 [Example 410, 8-(6-chloro-5-methylpyridin-3-yl)-2-(2-(3-ethyl-3-fluoroazetidin-1-yl)-2-oxoethyl)pyrrolo[1,2-a]pyrazin-1(2H)-one]
91%	O=C(Cn1cnc2[nH]cc(-c3ccc(F)c(C(F)(F)F)c3)c2c1=O)N1CCC(F)C1 (centres unmarked) [Example 174, 5-(4-fluoro-3-(trifluoromethyl)phenyl)-3-(2-(3-fluoropyrrolidin-1-yl)-2-oxoethyl)-3H-pyrrolo[2,3-d]pyrimidin-4(7H)-one]
69%	O=C(Cn1cnc2[nH]cc(-c3ccc(Cl)c(C(F)(F)F)c3)c2c1=O)N1C[C@@H](F)[C@@H](F)C1 [Example 181]
83%	O=C(Cn1ccc2scc(-c3ccc(Cl)c(C(F)(F)F)c3)c2c1=O)N1CCCC1 [Example 1, 3-(4-chloro-3-(trifluoromethyl)phenyl)-5-(2-oxo-2-(pyrrolidin-1-yl)ethyl)thieno[3,2-c]pyridin-4(5H)-one]
41%	CC1(F)CN(C(=O)Cn2ccc3scc(-c4ccc(F)c(F)c4)c3c2=O)C1 [Example 20, 3-(3,4-difluorophenyl)-5-(2-(3-fluoro-3-methylazetidin-1-yl)-2-oxoethyl)thieno[3,2-c]pyridin-4(5H)-one]
61%	O=C(Cn1ccc2c(c(-c3ccc(F)c(C(F)(F)F)c3)cn2C2COC2)c1=O)N1CCC(F)C1 (centres unmarked) [Example 265, 3-(4-fluoro-3-(trifluoromethyl)phenyl)-5-(2-(3-fluoropyrrolidin-1-yl)-2-oxoethyl)-1-(oxetan-3-yl)-1H-pyrrolo[3,2-c]pyridin-4(5H)-one]
53%	O=C(Cn1ccc2[nH]cc(-c3ccc(F)c(Cl)c3)c2c1=O)N1CCC(F)C1 (centres unmarked) [Example 209, 3-(3-chloro-4-fluorophenyl)-5-(2-(3-fluoropyrrolidin-1-yl)-2-oxoethyl)-1H-pyrrolo[3,2-c]pyridin-4(5H)-one]

— patent US12162890B2 (Novartis AG, priority 2015, dated 2024)
